# Measured values from publication PMC12396409, “Screening and hit evaluation of a microbial metabolite library against the pathogenic Plasmodium falciparum and Toxoplasma gondii parasites” (International Journal for Parasitology: Drugs and Drug …, 2025).
# Like-named read-outs stand apart in the source and are kept apart here.
# Columns and labels:
# [1] = tested on: P. falciparum 3D7 parasites; test: P. falciparum growth inhibition assay, 1-cycle (72 h treatment), SYBR DNA staining (library screen at 2 μg/mL and dose-response); assay type: cell-based, Plasmodium falciparum; settings: 72 h; for activity at 2 µg/mL: Plasmodium falciparum, 3D7
# [2] = tested on: P. falciparum 3D7 parasites; test: P. falciparum growth inhibition assay, 2-cycle (120 h treatment), delayed-death screen and dose-response; assay type: cell-based, Plasmodium falciparum; settings: 120 h; for activity at 2 µg/mL: Plasmodium falciparum, 3D7
# [3] = tested on: T. gondii RH strain (RH-Tub-eYFP) tachyzoites; test: microbe, parasite or virus in culture; assay type: cell-based, Toxoplasma gondii; settings: 72 h, 72 h; for percent parasite growth at 2 µg/mL: Toxoplasma gondii
# [4] = P. falciparum, parasite screen 2 μg/mL, % growth, replicate 1
# [5] = P. falciparum, parasite screen 2 μg/mL, % growth, replicate 2
# [6] = T. gondii, parasite screen 2 μg/mL, % growth, replicate 1
# [7] = T. gondii, parasite screen 2 μg/mL, % growth, replicate 2
# [8] = library screen at 2 μg/mL, % growth, replicate 1
# [9] = library screen at 2 μg/mL, % growth, replicate 2
SMILES,"Pf_72h_%Growth_Rep1 [1, 8]","Pf_72h_%Growth_Rep2 [1, 9]","Pf_120h_%Growth_Rep1 [2, 8]","Pf_120h_%Growth_Rep2 [2, 9]","Tg_72h_%Growth_Rep1 [3, 8]","Tg_72h_%Growth_Rep2 [3, 9]",further results
CC[C@H]1OC(=O)[C@H](C)[C@@H](O[C@H]2C[C@@](C)(OC)[C@@H](O)[C@H](C)O2)[C@H](C)[C@@H](O[C@@H]2O[C@H](C)C[C@H](N(C)C)[C@H]2O)[C@](C)(OC)C[C@@H](C)C(=O)[C@H](C)[C@@H](O)[C@]1(C)O [Clarithromycin],–,–,–,–,–,–,"activity at 2 µg/mL ([1]; P. falciparum, screen at 2 μg/mL, replicate 1, read-out: Pf_72h_%Growth_Rep1): 74.8%; activity at 2 µg/mL ([1]; P. falciparum, screen at 2 μg/mL, replicate 2, read-out: Pf_72h_%Growth_Rep2): 62.6%; activity at 2 µg/mL ([2]; P. falciparum, screen at 2 μg/mL, replicate 1, read-out: Pf_120h_%Growth_Rep1): 31.2%; activity at 2 µg/mL ([2]; P. falciparum, screen at 2 μg/mL, replicate 2, read-out: Pf_120h_%Growth_Rep2): 16.9%; percent parasite growth at 2 µg/mL ([3]; T. gondii, screen at 2 μg/mL, replicate 1, read-out: Tg_72h_%Growth_Rep1): 40.9%; percent parasite growth at 2 µg/mL ([3]; T. gondii, screen at 2 μg/mL, replicate 2, read-out: Tg_72h_%Growth_Rep2): 40.8%"
C=C(NC(=O)C(=C)NC(=O)c1csc(C2=N[C@@H]3c4csc(n4)[C@H]4NC(=O)c5csc(n5)[C@H]([C@](C)(O)[C@@H](C)O)NC(=O)[C@H]5CSC(=N5)/C(=C/C)NC(=O)[C@H]([C@@H](C)O)NC(=O)c5csc(n5)[C@]3(CC2)NC(=O)[C@H](C)NC(=O)C(=C)NC(=O)C(=C)NC(=O)[C@H](C(C)C)N[C@@H]2C=Cc3c([C@H](C)O)cc(nc3[C@H]2O)C(=O)O[C@@H]4C)n1)C(N)=O [Siomycin A],–,–,–,–,–,–,"Pf_72h_%Growth_Rep1 [1, 4]: 88.11%; Pf_72h_%Growth_Rep2 [1, 5]: 105.15%; Pf_120h_%Growth_Rep1 [2, 4]: 88.55%; Pf_120h_%Growth_Rep2 [2, 5]: 55.07%; Tg_72h_%Growth_Rep1 [3, 6]: 94.53%; Tg_72h_%Growth_Rep2 [3, 7]: 80.70%"
CC[C@@H](C(=O)[C@@H](C)[C@@H](O)[C@H](C)[C@@H]1O[C@@H]([C@@H](CC)C(=O)O)CC[C@@H]1C)[C@H]1O[C@]2(C=C[C@@H](O)[C@]3(CC[C@@](C)([C@H]4CC[C@](O)(CC)[C@H](C)O4)O3)O2)[C@H](C)C[C@@H]1C [Salinomycin sodium],–,–,–,–,–,–,"Pf_72h_%Growth_Rep1 [1, 4]: 3.74%; Pf_72h_%Growth_Rep2 [1, 5]: -3.65%; Pf_120h_%Growth_Rep1 [2, 4]: 8.77%; Pf_120h_%Growth_Rep2 [2, 5]: -2.16%; Tg_72h_%Growth_Rep1 [3, 6]: 1.25%; Tg_72h_%Growth_Rep2 [3, 7]: 0.43%"
CCCC[C@@H](C)[C@@H](OC(=O)C[C@@H](CC(=O)O)C(=O)O)[C@H](C[C@@H](C)C[C@H](O)CCCC[C@@H](O)C[C@H](O)[C@H](C)N)OC(=O)C[C@@H](CC(=O)O)C(=O)O [Fumonisin B1],90.20%,119.39%,97.02%,120.58%,135.48%,98.34%,–
CNC[C@@H]1CC[C@@H](N)[C@@H](O[C@H]2[C@H](O)[C@@H](O[C@H]3OC[C@](C)(O)[C@H](NC)[C@H]3O)[C@H](N)C[C@@H]2N)O1 [Gentamicin C2b],6.39%,7.30%,7.99%,7.07%,152.97%,86.04%,–
C/C=C(\C)[C@H](O)[C@H](C)/C=C(C)/C=C/C/C(C)=C/Cc1oc(OC)c(C)c(=O)c1C [Actinopyrone A],87.45%,86.38%,139.24%,89.64%,80.38%,90.86%,–
CC1=C[C@@H]2/C=C(/C)CCC(=O)[C@@H](O)CCC(=O)[C@]23C(=O)N[C@@H](CC(C)C)[C@@H]3[C@@H]1C [Aspochalasin M],78.34%,81.89%,80.74%,79.20%,143.85%,96.90%,–
C=C(C)[C@@H]1CC[C@]2(C(=O)O)CC[C@]3(C)[C@H](CC[C@@H]4[C@@]5(C)CC[C@H](O)C(C)(C)[C@@H]5CC[C@]43C)[C@@H]12 [Betulinic acid],–,–,–,–,–,–,"activity at 2 µg/mL ([1]; library screen at 2 μg/mL, % growth, replicate 1, read-out: Pf_72h_%Growth_Rep1): 73.8%; activity at 2 µg/mL ([1]; library screen at 2 μg/mL, % growth, replicate 2, read-out: Pf_72h_%Growth_Rep2): 76.9%; activity at 2 µg/mL ([2]; library screen at 2 μg/mL, % growth, replicate 1, read-out: Pf_120h_%Growth_Rep1): 70.3%; activity at 2 µg/mL ([2]; library screen at 2 μg/mL, % growth, replicate 2, read-out: Pf_120h_%Growth_Rep2): 59.9%; percent parasite growth at 2 µg/mL ([3]; library screen at 2 μg/mL, % growth, replicate 1, read-out: Tg_72h_%Growth_Rep1): 107%; percent parasite growth at 2 µg/mL ([3]; library screen at 2 μg/mL, % growth, replicate 2, read-out: Tg_72h_%Growth_Rep2): 88%"
